{"source": "patent US20200246432A1", "about": "“NITRIC OXIDE- AND FAS LIGAND- ELUTING COMPOSITIONS AND DEVICES AND METHODS OF TREATMENT USING SAME” (YALE UNIVERSITY, priority 2017, published 2020)", "type_in_all_cases": "cell-based", "key": {"human aortic SMCs [1]": {"test_system": "human aortic SMCs", "experiment": "SMC apoptosis/killing, TUNEL staining, human aortic SMCs", "details": "DetaNONOate alone, up to 0.2 mM", "procedure": "(§1) FIG. 3 is a set of graphs illustrating the finding that 48 hours of treatment with varying concentrations of human FasL and DetaNONOate (NO donor) increased apoptosis in human (left panel) and pig (right panel) aortic SMCs in a synergistic way.\n(§2) Addition of FasL and NO donor DetaNONOate increased human and pig aortic SMC apoptosis in a synergistic fashion (FIG. 3). DetaNONOate alone, up to 0.2 mM concentration, led to minimal (<15%) death of human or porcine SMCs."}, "[2]": {"test_system": "human umbilical vein endothelial cell (HUVEC)", "experiment": "EC viability: HUVEC cell number, apoptosis, proliferation", "procedure": "Next, the effect of FasL and NO donor combinations on EC viability was tested."}, "pig aortic SMCs": {"test_system": "pig aortic SMCs", "experiment": "SMC apoptosis/killing, TUNEL staining, pig aortic SMCs", "details": "DetaNONOate alone, up to 0.2 mM", "procedure": "as §1, §2"}, "human aortic SMCs [3]": {"test_system": "human aortic SMCs", "experiment": "Fas receptor expression on cultured human aortic SMCs after NO donor treatment (staining)", "details": "0.1 mM DetaNONOate, 24 hours", "procedure": "FIG. 2 is a set of images illustrating the finding that 24 hours of treatment with 0.1 mM DetaNONOate (NO donor) increased Fas receptors on the surface of human aortic SMCs dramatically. Blue=DAPI nuclei, red=Fas receptor. Scale bar: 50 μm.\nBoth local delivery of FasL, and increasing the Fas receptors on the surface of the target cells, can increase the efficiency of FasL-mediated apoptosis. Nitric oxide (NO) is known to increase surface Fas receptors on vascular SMCs (Fukuo et al., Hypertension, 1996. 27(3 Pt 2): p. 823-6; Boyle, Weissberg, and Bennett, Arterioscler Thromb Vasc Biol, 2002. 22(10): p. 1624-30). […] After 24 hours of treatment with DetaNONOate, Fas receptor expression on SMCs was increased (red stain, FIG. 2, right panel)."}}}
{"smiles": "NCCN(CCN)N(O)N=O", "note": "[DetaNONOate, 2,2′-(2-Hydroxy-2-nitrosohydrazinylidene)bis-ethanamine]", "values": [{"measurement": "death of human SMCs", "setting": "human aortic SMCs [1]", "value": "< 15", "unit": "%"}, {"measurement": "EC viability", "setting": "[2]; DetaNONOate 0.2 mM", "value": "negatively affected EC viability"}, {"measurement": "HUVEC cell number, rates of apoptosis or proliferation", "setting": "[2]; DetaNONOate alone 0.1 mM, absence of FasL, 96 hours", "value": "did not affect"}, {"measurement": "death of porcine SMCs", "setting": "pig aortic SMCs", "value": "< 15", "unit": "%"}, {"measurement": "Fas receptor expression on SMCs", "setting": "human aortic SMCs [3]", "value": "increased"}]}
